{"source": "patent US6914045B2", "about": "“Glycopeptide antibiotics” (Wyeth Holdings Corporation, priority 2001, dated 2005)", "experiment_in_all_cases": "in vitro antibacterial evaluation, MIC by broth dilution", "type_in_all_cases": "cell-based", "key": {"Streptococcus sp.": {"system": "Streptococcus sp.", "in_short": "(§1)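 MIC = lowest antibiotic concentration preventing visible growth; inoculum 5×10^5 CFU/mL; drug range 64-0.06 μg/mL; Muller-Hinton II […]; NCCLS M7-A2 guidance.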"}, "Enterococcus sp.": {"system": "Enterococcus sp.", "in_short": "as §1"}, "Staphylococcus sp.": {"system": "Staphylococcus sp.", "in_short": "as §1"}, "Escherichia coli": {"system": "Escherichia coli", "in_short": "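Broth dilution MIC per NCCLS M7-A2 in Mueller-Hinton II medium, inoculum 5×10^5 CFU/mL, antibiotic range 64-0.06 μg/mL. MIC taken as lowest concentration inhibiting growth.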"}}, "note": "Where two headings read alike, the source gives them in different places.", "data": [{"smiles": "CC(c1ccccc1)C1NC(=O)CNC(=O)C(CO)NC(=O)C(C(O)C2CNC(=N)N2C2OC(CO)C(O)C(O)C2O)NC(=O)C(C(O)C2CNC(=N)N2)NC(=O)C(Cc2ccc3oc(-c4ccc5c(c4)Cc4ccccc4-5)nc3c2)NC1=O", "note": "(stereo not drawn) [Example 37, Cyclo[3-[2-(9H-fluoren-2-yl)-1,3-benzoxazol-5-yl]alanyl-3-(2-iminoimidazolidin-4-yl)seryl-3-(3-hexopyranosyl-2-iminoimidazolidin-4-yl)serylserylglycyl-β-methylphenylalanyl]]", "values": [{"measurement": "MIC Streptococcus agalactiae (GC 4564)", "setting": "Streptococcus sp.", "result": 16, "unit": "µg/mL"}, {"measurement": "MIC Streptococcus pneumoniae (ATCC 6301)", "setting": "Streptococcus sp.", "result": 32, "unit": "µg/mL"}, {"measurement": "MIC Streptococcus pneumoniae (GC 1894)", "setting": "Streptococcus sp.", "result": 16, "unit": "µg/mL"}, {"measurement": "MIC Streptococcus pneumoniae (GC 4565)", "setting": "Streptococcus sp.", "result": 16, "unit": "µg/mL"}, {"measurement": "MIC Streptococcus pyogenes (GC 4563)", "setting": "Streptococcus sp.", "result": 4, "unit": "µg/mL"}, {"measurement": "MIC Enterococcus avium (GC 4558)", "setting": "Enterococcus sp.", "result": 8, "unit": "µg/mL"}, {"measurement": "MIC Enterococcus faecalis (ATCC 29212)", "setting": "Enterococcus sp.", "result": 16, "unit": "µg/mL"}, {"measurement": "MIC Enterococcus faecalis (GC 2242)", "setting": "Enterococcus sp.", "result": 16, "unit": "µg/mL"}, {"measurement": "MIC Enterococcus faecalis (GC 2691)", "setting": "Enterococcus sp.", "result": 16, "unit": "µg/mL"}, {"measurement": "MIC Enterococcus faecalis (GC 3059)", "setting": "Enterococcus sp.", "result": 16, "unit": "µg/mL"}, {"measurement": "MIC Enterococcus faecalis (GC 4552)", "setting": "Enterococcus sp.", "result": 16, "unit": "µg/mL"}, {"measurement": "MIC Enterococcus faecalis (GC 4553)", "setting": "Enterococcus sp.", "result": 4, "unit": "µg/mL"}, {"measurement": "MIC Enterococcus faecalis (GC 4554)", "setting": "Enterococcus sp.", "result": 16, "unit": "µg/mL"}, {"measurement": "MIC Enterococcus faecalis (GC 6189)", "setting": "Enterococcus sp.", "result": 16, "unit": "µg/mL"}, {"measurement": "MIC Enterococcus faecium (GC 2243)", "setting": "Enterococcus sp.", "result": 8, "unit": "µg/mL"}, {"measurement": "MIC Enterococcus faecium (GC 4556)", "setting": "Enterococcus sp.", "result": 16, "unit": "µg/mL"}, {"measurement": "MIC Enterococcus faecium (GC 4557)", "setting": "Enterococcus sp.", "result": 4, "unit": "µg/mL"}, {"measurement": "MIC Coagulase Negative Staphylococcus (GC 4547)", "setting": "Staphylococcus sp.", "result": 16, "unit": "µg/mL"}, {"measurement": "MIC Coagulase Negative Staphylococcus (GC 4548)", "setting": "Staphylococcus sp.", "result": 8, "unit": "µg/mL"}, {"measurement": "MIC Coagulase Negative Staphylococcus (GC 4549)", "setting": "Staphylococcus sp.", "result": 8, "unit": "µg/mL"}, {"measurement": "MIC Coagulase Negative Staphylococcus (GC 4551)", "setting": "Staphylococcus sp.", "result": 8, "unit": "µg/mL"}, {"measurement": "MIC Coagulase Negative Staphylococcus (GC 6257)", "setting": "Staphylococcus sp.", "result": 4, "unit": "µg/mL"}, {"measurement": "MIC Staphylococcus aureus (ATCC 29213)", "setting": "Staphylococcus sp.", "result": 16, "unit": "µg/mL"}, {"measurement": "MIC Staphylococcus aureus (GC 1131)", "setting": "Staphylococcus sp.", "result": 8, "unit": "µg/mL"}, {"measurement": "MIC Staphylococcus aureus (GC 3051)", "setting": "Staphylococcus sp.", "result": 8, "unit": "µg/mL"}, {"measurement": "MIC Staphylococcus aureus (GC 3053)", "setting": "Staphylococcus sp.", "result": 8, "unit": "µg/mL"}, {"measurement": "MIC Staphylococcus aureus (GC 4541)", "setting": "Staphylococcus sp.", "result": 8, "unit": "µg/mL"}, {"measurement": "MIC Staphylococcus aureus (GC 4542)", "setting": "Staphylococcus sp.", "result": 8, "unit": "µg/mL"}, {"measurement": "MIC Staphylococcus aureus (GC 4544)", "setting": "Staphylococcus sp.", "result": 8, "unit": "µg/mL"}, {"measurement": "MIC Staphylococcus aureus (GC 4545)", "setting": "Staphylococcus sp.", "result": 16, "unit": "µg/mL"}, {"measurement": "MIC Staphylococcus aureus-SMITH (GC 4543)", "setting": "Staphylococcus sp.", "result": 8, "unit": "µg/mL"}, {"measurement": "MIC Staphylococcus haemolyticus (GC 4546)", "setting": "Staphylococcus sp.", "result": 8, "unit": "µg/mL"}, {"measurement": "MIC Escherichia coli (ATCC 25922)", "setting": "Escherichia coli", "result": 128, "unit": "µg/mL"}, {"measurement": "MIC Escherichia coli (GC 4559)", "setting": "Escherichia coli", "result": ">128", "unit": "µg/mL"}, {"measurement": "MIC Escherichia coli (GC 4560)", "setting": "Escherichia coli", "result": 4, "unit": "µg/mL"}]}, {"smiles": "CC(c1ccccc1)C1NC(=O)CNC(=O)C(CO)NC(=O)C(C(O)C2CNC(=N)N2C2OC(CO)C(O)C(O)C2O)NC(=O)C(C(O)C2CNC(=N)N2)NC(=O)C(Cc2ccc3oc(-c4ccccc4OC4OC(CO)C(O)C(O)C4O)nc3c2)NC1=O", "note": "(stereo not drawn) [Example 36, Cyclo[3-[2-[2-(hexopyranosyloxy)phenyl]-1,3-benzoxazol-5-yl]alanyl-3-(2-iminoimidazolidin-4-yl)seryl-3-(3-hexopyranosyl-2-iminoimidazolidin-4-yl)serylserylglycyl-β-methyl-phenylalanyl]]", "values": [{"measurement": "MIC Streptococcus pneumoniae (ATCC 6301)", "setting": "Streptococcus sp.; strain ATCC 6301, broth dilution, 18 hours at 35° C.", "result": ">128", "unit": "µg/mL"}, {"measurement": "MIC Streptococcus pneumoniae (GC 1894)", "setting": "Streptococcus sp.; strain GC 1894, broth dilution, 18 hours at 35° C.", "result": 128, "unit": "µg/mL"}, {"measurement": "MIC Streptococcus pyogenes (GC 4563)", "setting": "Streptococcus sp.; strain GC 4563, broth dilution, 18 hours at 35° C.", "result": 128, "unit": "µg/mL"}, {"measurement": "MIC Streptococcus agalactiae (GC 4564)", "setting": "Streptococcus sp.; strain GC 4564, broth dilution, 18 hours at 35° C.", "result": ">128", "unit": "µg/mL"}, {"measurement": "MIC Streptococcus pneumoniae (GC 4565)", "setting": "Streptococcus sp.; strain GC 4565, broth dilution, 18 hours at 35° C.", "result": ">128", "unit": "µg/mL"}, {"measurement": "MIC Enterococcus faecalis (ATCC 29212)", "setting": "Enterococcus sp.; strain ATCC 29212, broth dilution, 18 hours at 35° C.", "result": ">128", "unit": "µg/mL"}, {"measurement": "MIC Enterococcus faecalis (GC 2242)", "setting": "Enterococcus sp.; strain GC 2242, broth dilution, 18 hours at 35° C.", "result": ">128", "unit": "µg/mL"}, {"measurement": "MIC Enterococcus faecium (GC 2243)", "setting": "Enterococcus sp.; strain GC 2243, broth dilution, 18 hours at 35° C.", "result": ">128", "unit": "µg/mL"}, {"measurement": "MIC Enterococcus faecalis (GC 2691)", "setting": "Enterococcus sp.; strain GC 2691, broth dilution, 18 hours at 35° C.", "result": ">128", "unit": "µg/mL"}, {"measurement": "MIC Enterococcus faecalis (GC 3059)", "setting": "Enterococcus sp.; strain GC 3059, broth dilution, 18 hours at 35° C.", "result": ">128", "unit": "µg/mL"}, {"measurement": "MIC Enterococcus faecalis (GC 4552)", "setting": "Enterococcus sp.; strain GC 4552, broth dilution, 18 hours at 35° C.", "result": ">128", "unit": "µg/mL"}, {"measurement": "MIC Enterococcus faecalis (GC 4553)", "setting": "Enterococcus sp.; strain GC 4553, broth dilution, 18 hours at 35° C.", "result": 128, "unit": "µg/mL"}, {"measurement": "MIC Enterococcus faecalis (GC 4554)", "setting": "Enterococcus sp.; strain GC 4554, broth dilution, 18 hours at 35° C.", "result": ">128", "unit": "µg/mL"}, {"measurement": "MIC Enterococcus faecium (GC 4556)", "setting": "Enterococcus sp.; strain GC 4556, broth dilution, 18 hours at 35° C.", "result": ">128", "unit": "µg/mL"}, {"measurement": "MIC Enterococcus faecium (GC 4557)", "setting": "Enterococcus sp.; strain GC 4557, broth dilution, 18 hours at 35° C.", "result": 128, "unit": "µg/mL"}, {"measurement": "MIC Enterococcus avium (GC 4558)", "setting": "Enterococcus sp.; strain GC 4558, broth dilution, 18 hours at 35° C.", "result": 128, "unit": "µg/mL"}, {"measurement": "MIC Enterococcus faecalis (GC 6189)", "setting": "Enterococcus sp.; strain GC 6189, broth dilution, 18 hours at 35° C.", "result": ">128", "unit": "µg/mL"}, {"measurement": "MIC Staphylococcus aureus (ATCC 29213)", "setting": "Staphylococcus sp.; strain ATCC 29213, broth dilution, 18 hours at 35° C.", "result": ">128", "unit": "µg/mL"}, {"measurement": "MIC Staphylococcus aureus (GC 1131)", "setting": "Staphylococcus sp.; strain GC 1131, broth dilution, 18 hours at 35° C.", "result": ">128", "unit": "µg/mL"}, {"measurement": "MIC Staphylococcus aureus (GC 3051)", "setting": "Staphylococcus sp.; strain GC 3051, broth dilution, 18 hours at 35° C.", "result": ">128", "unit": "µg/mL"}, {"measurement": "MIC Staphylococcus aureus (GC 3053)", "setting": "Staphylococcus sp.; strain GC 3053, broth dilution, 18 hours at 35° C.", "result": ">128", "unit": "µg/mL"}, {"measurement": "MIC Staphylococcus aureus (GC 4541)", "setting": "Staphylococcus sp.; strain GC 4541, broth dilution, 18 hours at 35° C.", "result": ">128", "unit": "µg/mL"}, {"measurement": "MIC Staphylococcus aureus (GC 4542)", "setting": "Staphylococcus sp.; strain GC 4542, broth dilution, 18 hours at 35° C.", "result": ">128", "unit": "µg/mL"}, {"measurement": "MIC Staphylococcus aureus-SMITH (GC 4543)", "setting": "Staphylococcus sp.; strain GC 4543, broth dilution, 18 hours at 35° C.", "result": ">128", "unit": "µg/mL"}, {"measurement": "MIC Staphylococcus aureus (GC 4544)", "setting": "Staphylococcus sp.; strain GC 4544, broth dilution, 18 hours at 35° C.", "result": ">128", "unit": "µg/mL"}, {"measurement": "MIC Staphylococcus aureus (GC 4545)", "setting": "Staphylococcus sp.; strain GC 4545, broth dilution, 18 hours at 35° C.", "result": ">128", "unit": "µg/mL"}, {"measurement": "MIC Staphylococcus haemolyticus (GC 4546)", "setting": "Staphylococcus sp.; strain GC 4546, broth dilution, 18 hours at 35° C.", "result": 64, "unit": "µg/mL"}, {"measurement": "MIC Coagulase Negative Staphylococcus (GC 4547)", "setting": "Staphylococcus sp.; strain GC 4547, broth dilution, 18 hours at 35° C.", "result": 64, "unit": "µg/mL"}, {"measurement": "MIC Coagulase Negative Staphylococcus (GC 4548)", "setting": "Staphylococcus sp.; strain GC 4548, broth dilution, 18 hours at 35° C.", "result": 128, "unit": "µg/mL"}, {"measurement": "MIC Coagulase Negative Staphylococcus (GC 4549)", "setting": "Staphylococcus sp.; strain GC 4549, broth dilution, 18 hours at 35° C.", "result": 64, "unit": "µg/mL"}, {"measurement": "MIC Coagulase Negative Staphylococcus (GC 4551)", "setting": "Staphylococcus sp.; strain GC 4551, broth dilution, 18 hours at 35° C.", "result": ">128", "unit": "µg/mL"}, {"measurement": "MIC Coagulase Negative Staphylococcus (GC 6257)", "setting": "Staphylococcus sp.; strain GC 6257, broth dilution, 18 hours at 35° C.", "result": 64, "unit": "µg/mL"}, {"measurement": "MIC Escherichia coli (ATCC 25922)", "setting": "Escherichia coli; strain ATCC 25922, broth dilution, 18 hours at 35° C.", "result": ">128", "unit": "µg/mL"}, {"measurement": "MIC Escherichia coli (GC 4559)", "setting": "Escherichia coli; strain GC 4559, broth dilution, 18 hours at 35° C.", "result": 128, "unit": "µg/mL"}, {"measurement": "MIC Escherichia coli (GC 4560)", "setting": "Escherichia coli; strain GC 4560, broth dilution, 18 hours at 35° C.", "result": 64, "unit": "µg/mL"}]}]}
